Values after ≈ are worked out from the molar mass of the structure shown. Where two headings read alike, the source gives them in different places.
Columns and labels:
Staph. aureus A-9537 = experiment: MIC, tube dilution, Staphylococcus aureus A9537; format: cell-based; details: overnight 37° C., Nutrient Broth; for Minimum Inhibitory Concentration (M.I.C.): Staph. aureus A9537; for MIC: Staphylococcus aureus, A9537, Staph. aureus A9537, read-out: Minimum Inhibitory Concentration (M.I.C.)
Excerpt: (§1) Representative compounds of the present invention were subjected to in vitro antibiotic screening against a variety of microorganisms.

[1] = system: Staph. aureus (Pen-Res) A-9606; experiment: MIC, tube dilution, Staphylococcus aureus A9606 (Pen-Res); format: cell-based; details: overnight 37° C.; for MIC: Staphylococcus aureus
Excerpt: as §1

E. coli A-15119 = experiment: MIC, tube dilution, Escherichia coli A15119; format: cell-based; details: overnight 37° C.; for Minimum Inhibitory Concentration (M.I.C.): E. coli A15119; for MIC: Escherichia coli, A15119, E. coli A15119, read-out: Minimum Inhibitory Concentration (M.I.C.)
Excerpt: as §1

E. coli A-20341-1 = experiment: MIC, tube dilution, Escherichia coli A20341-1; format: cell-based
Excerpt: as §1

[2] = system: Staph. aureus A-9537 and 50% serum; experiment: MIC, tube dilution, Staph. aureus A9537 + 50% serum; format: cell-based, Staphylococcus aureus; details: overnight 37° C.; for MIC: Staphylococcus aureus, read-out: Minimum Inhibitory Concentration (M.I.C.)
Excerpt: as §1

Ps. aeruginosa A-21213 = experiment: MIC, tube dilution, Pseudomonas aeruginosa A21213; format: cell-based; details: Pseudomonas aeruginosa A21213, overnight 37° C.; for MIC: read-out: Minimum Inhibitory Concentration (M.I.C.)
Excerpt: as §1

[3] = system: Klebsiella species A20468; experiment: MIC, tube dilution, Klebsiella species A20468; format: cell-based; details: Klebsiella species (K. pneumoniae) A20468, overnight 37° C.; for MIC: read-out: Minimum Inhibitory Concentration (M.I.C.)
Excerpt: as §1

Ps. aeruginosa A-9843A = experiment: MIC, tube dilution, Pseudomonas aeruginosa A9843A; format: cell-based; details: overnight 37° C.; for MIC: Pseudomonas aeruginosa, A9843A, read-out: Minimum Inhibitory Concentration (M.I.C.), Pseudomonas aeruginosa A9843A
Excerpt: as §1

Str. faecalis A-20688 = experiment: MIC, tube dilution, Streptococcus faecalis A20688; format: cell-based; details: overnight 37° C.; for MIC: Enterococcus faecalis, A20688, Str. faecalis A20688, read-out: Minimum Inhibitory Concentration (M.I.C.)
Excerpt: as §1

Ent. cloacae A-9656 = experiment: MIC, tube dilution, Enterobacter cloacae A9656; format: cell-based; details: overnight 37° C.; for MIC: read-out: Minimum Inhibitory Concentration (M.I.C.)
Excerpt: as §1

Ser. marcescens A-20019 = experiment: MIC, tube dilution, Serratia marcescens A20019; format: cell-based; details: overnight 37° C.; for Minimum Inhibitory Concentration (M.I.C.): Serratia marcescens A20019; for MIC: Serratia marcescens, A20019, Serratia marcescens A20019, read-out: Minimum Inhibitory Concentration (M.I.C.)
Excerpt: as §1

Ent. cloacae A-9659 = experiment: MIC, tube dilution, Enterobacter cloacae A9659; format: cell-based; details: overnight 37° C.; for Minimum Inhibitory Concentration (M.I.C.): Enterobacter cloacae A9659; for MIC: Enterobacter cloacae, A9659, Enterobacter cloacae A9659, read-out: Minimum Inhibitory Concentration (M.I.C.)
Excerpt: as §1

Pr. morganii A-15153 = experiment: MIC, tube dilution, Proteus morganii A15153; format: cell-based; details: overnight 37° C.; for Minimum Inhibitory Concentration (M.I.C.): Proteus morganii A15153; for MIC: Morganella morganii, A15153, Proteus morganii A15153, read-out: Minimum Inhibitory Concentration (M.I.C.)
Excerpt: as §1

Str. pyogenes A-9604 = experiment: MIC, tube dilution, Streptococcus pyogenes A9604; format: cell-based; details: overnight 37° C., Nutrient Broth; for Minimum Inhibitory Concentration (M.I.C.): Str. pyogenes A9604
Excerpt: as §1

Pr. mirabilis A-9900 = experiment: MIC, tube dilution, Proteus mirabilis A9900; format: cell-based; details: overnight 37° C.; for Minimum Inhibitory Concentration (M.I.C.): Proteus mirabilis A9900; for MIC: Proteus mirabilis, A9900, Proteus mirabilis A9900, read-out: Minimum Inhibitory Concentration (M.I.C.)
Excerpt: as §1

[4] = system: Staph. aureus (Meth-Res) A-15097; experiment: MIC, tube dilution, Staphylococcus aureus A15097 (Meth-Res); format: cell-based; details: overnight 37° C.; for MIC: Staphylococcus aureus
Excerpt: as §1

K. pneumoniae A-15130 = experiment: MIC, tube dilution, Klebsiella pneumoniae A15130; format: cell-based; details: overnight 37° C.; for Minimum Inhibitory Concentration (M.I.C.): K. pneumoniae A15130; for MIC: Klebsiella pneumoniae, A15130, K. pneumoniae A15130, read-out: Minimum Inhibitory Concentration (M.I.C.)
Excerpt: as §1

[5] = system: Providencia stuartii A21205; experiment: MIC, tube dilution, Providencia stuartii (Pr. rettgeri) A21205; format: cell-based; details: for Minimum Inhibitory Concentration (M.I.C.): Providencia stuartii (Pr. rettgeri) A21205; for MIC: Providencia stuartii
Excerpt: as §1

Str. pneumoniae A-9585 = experiment: MIC, tube dilution, Streptococcus pneumoniae A9585; format: cell-based; details: overnight 37° C., Nutrient Broth; for Minimum Inhibitory Concentration (M.I.C.): Str. pneumoniae A9585
Excerpt: as §1

Pr. vulgaris A-9716 = experiment: MIC, tube dilution, Proteus vulgaris / Proteus mirabilis A9716; format: cell-based, Proteus vulgaris (name changed to Proteus mirabilis); details: overnight 37° C.; for MIC: Proteus vulgaris; for Minimum Inhibitory Concentration (M.I.C.): Proteus vulgaris / Proteus mirabilis A9716
Excerpt: as §1

[6] = read-out: Minimum Inhibitory Concentration (M.I.C.), Staph. aureus A9606 (Pen-Res)
[7] = Escherichia coli, A203411; E. coli A20341-1; overnight 37° C.; read-out: Minimum Inhibitory Concentration (M.I.C.)
[8] = A9716, read-out: Minimum Inhibitory Concentration (M.I.C.), Proteus vulgaris / Proteus mirabilis A9716
[9] = read-out: Minimum Inhibitory Concentration (M.I.C.), Staph. aureus A15097 (Meth-Res)
[10] = A21205, read-out: Minimum Inhibitory Concentration (M.I.C.)

Row | SMILES | Minimum Inhibitory Concentration (M.I.C.) (Staph. aureus A-9537) [µg/mL] | Minimum Inhibitory Concentration (M.I.C.) ([1]; Staph. aureus A9606 (Pen-Res)) [µg/mL] | Minimum Inhibitory Concentration (M.I.C.) (E. coli A-15119) [µg/mL] | Minimum Inhibitory Concentration (M.I.C.) [2] [µg/mL] | Minimum Inhibitory Concentration (M.I.C.) [3] [µg/mL] | Minimum Inhibitory Concentration (M.I.C.) (Ent. cloacae A-9656; Enterobacter cloacae A9656) [µg/mL] | Minimum Inhibitory Concentration (M.I.C.) (Ser. marcescens A-20019) [µg/mL] | Minimum Inhibitory Concentration (M.I.C.) (Ent. cloacae A-9659) [µg/mL] | Minimum Inhibitory Concentration (M.I.C.) (Pr. morganii A-15153) [µg/mL] | Minimum Inhibitory Concentration (M.I.C.) (Pr. mirabilis A-9900) [µg/mL] | Minimum Inhibitory Concentration (M.I.C.) (K. pneumoniae A-15130) [µg/mL] | MIC (E. coli A-15119) [µg/mL] | MIC [2] [µg/mL] | MIC [3] [µg/mL] | MIC (Str. faecalis A-20688) [µg/mL] | MIC (Ser. marcescens A-20019) [µg/mL] | MIC (Ent. cloacae A-9659) [µg/mL] | MIC (Pr. morganii A-15153) [µg/mL] | MIC (Pr. mirabilis A-9900) [µg/mL] | MIC (K. pneumoniae A-15130) [µg/mL] | other results
1 | CCC1C(=O)N2C(C(=O)[O-])=C(C)S[C@H]12.[Na+] (stereo partly drawn) [1 (trans), Sodium 6-Ethyl-2-methylpenem-3-carboxylate] | 8 | 8 | 125 | > 63 | > 125 | > 125 | > 125 | > 125 | > 125 | 125 | > 125 | – | – | – | – | – | – | – | – | – | Minimum Inhibitory Concentration (M.I.C.) (E. coli A-20341-1; E. coli A20341-1; overnight 37° C.): 125 µg/mL; Minimum Inhibitory Concentration (M.I.C.) (Ps. aeruginosa A-21213): > 125 µg/mL; Minimum Inhibitory Concentration (M.I.C.) (Ps. aeruginosa A-9843A; Pseudomonas aeruginosa A9843A): > 125 µg/mL; Minimum Inhibitory Concentration (M.I.C.) (Str. faecalis A-20688; Str. faecalis A20688): > 125 µg/mL; Minimum Inhibitory Concentration (M.I.C.) (Str. pyogenes A-9604): 4 µg/mL; Minimum Inhibitory Concentration (M.I.C.) ([4]; Staph. aureus A15097 (Meth-Res)): 8 µg/mL; Minimum Inhibitory Concentration (M.I.C.) ([5]; overnight 37° C.): 63 µg/mL; Minimum Inhibitory Concentration (M.I.C.) (Str. pneumoniae A-9585): 2 µg/mL
2 | CC1=C(C(=O)O)N2C(=O)C(C(O)c3ccccc3)C2S1 (centres unmarked) [Example 4] | – | – | – | – | – | – | – | – | – | – | – | > 125 | > 63 | > 125 | 125 (≈ 429 µM) | > 125 | > 125 | 125 (≈ 429 µM) | 63 (≈ 216 µM) | > 125 | MIC (Staph. aureus A-9537): 8 µg/mL (≈ 27.5 µM); MIC ([1]; Staph. aureus A9606 (Pen-Res), read-out: Minimum Inhibitory Concentration (M.I.C.)): 4 µg/mL (≈ 13.7 µM); MIC (E. coli A-20341-1; Escherichia coli, A203411, E. coli A20341-1; overnight 37° C.; read-out: Minimum Inhibitory Concentration (M.I.C.)): > 125 µg/mL; MIC (Pr. vulgaris A-9716; A9716, Proteus vulgaris / Proteus mirabilis A9716, read-out: Minimum Inhibitory Concentration (M.I.C.)): 63 µg/mL (≈ 216 µM); MIC (Ent. cloacae A-9656; Enterobacter cloacae, A9656, Enterobacter cloacae A9656): > 125 µg/mL; MIC (Str. pyogenes A-9604; Streptococcus pyogenes, A9604, Str. pyogenes A9604, read-out: Minimum Inhibitory Concentration (M.I.C.)): 4 µg/mL (≈ 13.7 µM); MIC ([4]; Staph. aureus A15097 (Meth-Res), read-out: Minimum Inhibitory Concentration (M.I.C.)): 125 µg/mL (≈ 429 µM); MIC ([5]; A21205, Providencia stuartii (Pr. rettgeri) A21205, overnight 37° C., read-out: Minimum Inhibitory Concentration (M.I.C.)): 125 µg/mL (≈ 429 µM); MIC (Str. pneumoniae A-9585; Streptococcus pneumoniae, A9585, Str. pneumoniae A9585, read-out: Minimum Inhibitory Concentration (M.I.C.)): 1 µg/mL (≈ 3.43 µM)
3 | CC1=C(C(=O)O)N2C(=O)C[C@H]2S1 [Preparation 4(+), (+)-2-Methylpenem-3-carboxylic Acid] | 0.5 | 0.5 | 4 | 4 | > 125 | 8 | 4 | 8 | 8 | 4 | 8 | – | – | – | – | – | – | – | – | – | Minimum Inhibitory Concentration (M.I.C.) (Pr. vulgaris A-9716): 4 µg/mL; Minimum Inhibitory Concentration (M.I.C.) (Str. pyogenes A-9604): 0.25 µg/mL; Minimum Inhibitory Concentration (M.I.C.) ([5]; overnight 37° C.): 4 µg/mL; Minimum Inhibitory Concentration (M.I.C.) (Str. pneumoniae A-9585): 0.06 µg/mL
4 | O=C([O-])C1=C(c2ccccc2)S[C@@H]2CC(=O)N12.[Na+] [Preparation 7, Sodium 2-Phenylpenem-3-carboxylate] | – | 16 | 8 | – | – | – | 63 | 63 | 63 | – | 125 | 4 | > 63 | > 125 | 16 | 32 | 32 | 32 | 4 | 63 | MIC (Staph. aureus A-9537): 2 µg/mL; MIC [1, 6]: 8 µg/mL; MIC (E. coli A-20341-1; [7]): > 125 µg/mL; MIC (Pr. vulgaris A-9716; [8]): 4 µg/mL; MIC (Ps. aeruginosa A-21213): > 125 µg/mL; MIC (Ps. aeruginosa A-9843A): > 125 µg/mL; MIC (Ent. cloacae A-9656; Enterobacter cloacae A9656): 125 µg/mL; MIC [4, 9]: 63 µg/mL; MIC [5, 10]: 16 µg/mL
5 | CCCCCC1=C(C(=O)[O-])N2C(=O)C[C@H]2S1.[K+] [Preparation 16, Potassium 2-Pentylpenem-3-carboxylate] | – | – | – | – | – | – | – | – | – | 8 | – | 63 | > 63 | > 125 | 32 | 125 | > 125 | 16 | 4 | > 125 | MIC [1, 6]: 4 µg/mL; MIC (E. coli A-20341-1; [7]): > 125 µg/mL; Minimum Inhibitory Concentration (M.I.C.) (Pr. vulgaris A-9716): 8 µg/mL; MIC (Pr. vulgaris A-9716; [8]): 4 µg/mL; MIC (Ps. aeruginosa A-21213): > 125 µg/mL; MIC (Ps. aeruginosa A-9843A): > 125 µg/mL; MIC (Ent. cloacae A-9656; Enterobacter cloacae A9656): 125 µg/mL; MIC [4, 9]: 125 µg/mL; MIC [5, 10]: 16 µg/mL

Reference: patent US4272437A, “Antibacterial agents, and 4-thio azetidinone intermediates” (priority 1979, dated 1981)
